Columns and labels:
Test in all cases: relative viability (nuclei count vs DMSO), 5 days (fraction); higher = more cells survive
A-427 = test system: A-427
Outline: (§1)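 After 5 days of treatment, lung cancer cells in 1536-well plates were fixed and stained in a single step (final 0.05% Triton X-100, 1% formaldehyde, 1 ug/ml Hoechst) and their nuclei counted on 4× images. Treatment had been applied by pin tool the day after seeding as one drug alone or as a fixed anchor-drug dose with five library-drug doses (not always all listed) in √10 steps. Relative viability is the nuclei count of treated wells divided by that of vehicle wells, and values are medians of duplicate plates.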

ABC-1 = test system: ABC-1
Outline: as §1

EMC-BAC-2 = test system: EMC-BAC-2
Outline: as §1

HARA = test system: HARA
Outline: as §1

HOP-62 = test system: HOP-62
Outline: as §1

LK-2 = test system: LK-2
Outline: as §1

LXF-289 = test system: LXF-289
Outline: as §1

NCI-H1792 = test system: NCI-H1792
Outline: as §1

NCI-H1944 = test system: NCI-H1944
Outline: as §1

NCI-H1993 = test system: NCI-H1993
Outline: as §1

NCI-H2009 = test system: NCI-H2009
Outline: as §1

NCI-H2170 = test system: NCI-H2170
Outline: as §1

NCI-H2228 = test system: NCI-H2228
Outline: as §1

NCI-H3122 = test system: NCI-H3122
Outline: as §1

NCI-H322M = test system: NCI-H322M
Outline: as §1

NCI-H522 = test system: NCI-H522
Outline: as §1

NCI-H727 = test system: NCI-H727
Outline: as §1

PC-3 [JPC-3] = test system: PC-3 [JPC-3]
Outline: as §1

SK-MES-1 = test system: SK-MES-1
Outline: as §1

SW 1573 = test system: SW 1573
Outline: as §1

SW 900 = test system: SW 900
Outline: as §1

## COc1cc2nccc(Oc3ccc(NC(=O)Nc4cc(C)on4)c(Cl)c3)c2cc1OC [Tivozanib] + CC(=O)c1c(C)c2cnc(Nc3ccc(N4CCNCC4)cn3)nc2n(C2CCCC2)c1=O [Palbociclib] (partner 0.5 µM)
A-427; first compound 0.005 µM
  relative viability: 0.51
A-427; first compound 0.01581 µM
  relative viability: 0.55
A-427; first compound 0.05 µM
  relative viability: 0.511
A-427; first compound 0.1581 µM
  relative viability: 0.531
A-427; first compound 0.5 µM
  relative viability: 0.476
ABC-1; first compound 0.005 µM
  relative viability: 0.638
ABC-1; first compound 0.01581 µM
  relative viability: 0.732
ABC-1; first compound 0.05 µM
  relative viability: 0.562
ABC-1; first compound 0.1581 µM
  relative viability: 0.511
ABC-1; first compound 0.5 µM
  relative viability: 0.437
EMC-BAC-2; first compound 0.005 µM
  relative viability: 0.524
EMC-BAC-2; first compound 0.01581 µM
  relative viability: 0.543
EMC-BAC-2; first compound 0.05 µM
  relative viability: 0.529
EMC-BAC-2; first compound 0.1581 µM
  relative viability: 0.521
EMC-BAC-2; first compound 0.5 µM
  relative viability: 0.494
HARA; first compound 0.005 µM
  relative viability: 0.297
HARA; first compound 0.01581 µM
  relative viability: 0.208
HARA; first compound 0.05 µM
  relative viability: 0.3
HARA; first compound 0.1581 µM
  relative viability: 0.245
HARA; first compound 0.5 µM
  relative viability: 0.272
HOP-62; first compound 0.005 µM
  relative viability: 0.499
HOP-62; first compound 0.01581 µM
  relative viability: 0.419
HOP-62; first compound 0.05 µM
  relative viability: 0.495
HOP-62; first compound 0.1581 µM
  relative viability: 0.438
HOP-62; first compound 0.5 µM
  relative viability: 0.397
LK-2; first compound 0.005 µM
  relative viability: 0.664
LK-2; first compound 0.01581 µM
  relative viability: 0.674
LK-2; first compound 0.05 µM
  relative viability: 0.503
LK-2; first compound 0.1581 µM
  relative viability: 0.875
LK-2; first compound 0.5 µM
  relative viability: 0.742
LXF-289; first compound 0.005 µM
  relative viability: 0.575
LXF-289; first compound 0.01581 µM
  relative viability: 0.576
LXF-289; first compound 0.05 µM
  relative viability: 0.6
LXF-289; first compound 0.1581 µM
  relative viability: 0.66
LXF-289; first compound 0.5 µM
  relative viability: 0.612
NCI-H1792; first compound 0.005 µM
  relative viability: 0.686
NCI-H1792; first compound 0.01581 µM
  relative viability: 0.643
NCI-H1792; first compound 0.05 µM
  relative viability: 0.553
NCI-H1792; first compound 0.1581 µM
  relative viability: 0.698
NCI-H1792; first compound 0.5 µM
  relative viability: 0.747
NCI-H1944; first compound 0.005 µM
  relative viability: 0.303
NCI-H1944; first compound 0.01581 µM
  relative viability: 0.365
NCI-H1944; first compound 0.05 µM
  relative viability: 0.344
NCI-H1944; first compound 0.1581 µM
  relative viability: 0.296
NCI-H1944; first compound 0.5 µM
  relative viability: 0.324
NCI-H1993; first compound 0.005 µM
  relative viability: 0.551
NCI-H1993; first compound 0.01581 µM
  relative viability: 0.641
NCI-H1993; first compound 0.05 µM
  relative viability: 0.638
NCI-H1993; first compound 0.1581 µM
  relative viability: 0.537
NCI-H1993; first compound 0.5 µM
  relative viability: 0.617
NCI-H2009; first compound 0.005 µM
  relative viability: 0.212
NCI-H2009; first compound 0.01581 µM
  relative viability: 0.209
NCI-H2009; first compound 0.05 µM
  relative viability: 0.23
NCI-H2009; first compound 0.1581 µM
  relative viability: 0.109
NCI-H2009; first compound 0.5 µM
  relative viability: 0.119
NCI-H2170; first compound 0.005 µM
  relative viability: 0.398
NCI-H2170; first compound 0.01581 µM
  relative viability: 0.392
NCI-H2170; first compound 0.05 µM
  relative viability: 0.414
NCI-H2170; first compound 0.5 µM
  relative viability: 0.388
NCI-H2228; first compound 0.005 µM
  relative viability: 0.688
NCI-H2228; first compound 0.01581 µM
  relative viability: 0.68
NCI-H2228; first compound 0.05 µM
  relative viability: 0.883
NCI-H2228; first compound 0.1581 µM
  relative viability: 0.321
NCI-H2228; first compound 0.5 µM
  relative viability: 0.643
NCI-H3122; first compound 0.005 µM
  relative viability: 0.164
NCI-H3122; first compound 0.01581 µM
  relative viability: 0.207
NCI-H3122; first compound 0.05 µM
  relative viability: 0.187
NCI-H3122; first compound 0.1581 µM
  relative viability: 0.212
NCI-H3122; first compound 0.5 µM
  relative viability: 0.184
NCI-H322M; first compound 0.005 µM
  relative viability: 0.467
NCI-H322M; first compound 0.01581 µM
  relative viability: 0.478
NCI-H322M; first compound 0.05 µM
  relative viability: 0.522
NCI-H322M; first compound 0.1581 µM
  relative viability: 0.538
NCI-H322M; first compound 0.5 µM
  relative viability: 0.513
NCI-H522; first compound 0.005 µM
  relative viability: 1
NCI-H522; first compound 0.01581 µM
  relative viability: 0.849
NCI-H522; first compound 0.05 µM
  relative viability: 0.889
NCI-H522; first compound 0.1581 µM
  relative viability: 0.894
NCI-H522; first compound 0.5 µM
  relative viability: 1.21
NCI-H727; first compound 0.005 µM
  relative viability: 0.659
NCI-H727; first compound 0.01581 µM
  relative viability: 0.659
NCI-H727; first compound 0.05 µM
  relative viability: 0.574
NCI-H727; first compound 0.1581 µM
  relative viability: 0.637
NCI-H727; first compound 0.5 µM
  relative viability: 0.7
PC-3 [JPC-3]; first compound 0.01581 µM
  relative viability: 0.55
PC-3 [JPC-3]; first compound 0.05 µM
  relative viability: 0.554
PC-3 [JPC-3]; first compound 0.1581 µM
  relative viability: 0.609
PC-3 [JPC-3]; first compound 0.5 µM
  relative viability: 0.55
SK-MES-1; first compound 0.005 µM
  relative viability: 0.306
SK-MES-1; first compound 0.01581 µM
  relative viability: 0.345
SK-MES-1; first compound 0.05 µM
  relative viability: 0.365
SK-MES-1; first compound 0.1581 µM
  relative viability: 0.326
SK-MES-1; first compound 0.5 µM
  relative viability: 0.376
SW 1573; first compound 0.005 µM
  relative viability: 0.344
SW 1573; first compound 0.01581 µM
  relative viability: 0.412
SW 1573; first compound 0.05 µM
  relative viability: 0.418
SW 1573; first compound 0.1581 µM
  relative viability: 0.391
SW 1573; first compound 0.5 µM
  relative viability: 0.344
SW 900; first compound 0.005 µM
  relative viability: 0.519
SW 900; first compound 0.01581 µM
  relative viability: 0.552
SW 900; first compound 0.05 µM
  relative viability: 0.559
SW 900; first compound 0.5 µM
  relative viability: 0.531

From the supplement of paper PMC10307832
